Structures can show the parent of a compound that is named as a salt.

The target of one test is T1, human SARM1(50-724) (Homo sapiens, UniProt Q6SZW1).
T1 construct: 40 nM human SARM1(50-724)
T1 sequence (Q6SZW1 50-724): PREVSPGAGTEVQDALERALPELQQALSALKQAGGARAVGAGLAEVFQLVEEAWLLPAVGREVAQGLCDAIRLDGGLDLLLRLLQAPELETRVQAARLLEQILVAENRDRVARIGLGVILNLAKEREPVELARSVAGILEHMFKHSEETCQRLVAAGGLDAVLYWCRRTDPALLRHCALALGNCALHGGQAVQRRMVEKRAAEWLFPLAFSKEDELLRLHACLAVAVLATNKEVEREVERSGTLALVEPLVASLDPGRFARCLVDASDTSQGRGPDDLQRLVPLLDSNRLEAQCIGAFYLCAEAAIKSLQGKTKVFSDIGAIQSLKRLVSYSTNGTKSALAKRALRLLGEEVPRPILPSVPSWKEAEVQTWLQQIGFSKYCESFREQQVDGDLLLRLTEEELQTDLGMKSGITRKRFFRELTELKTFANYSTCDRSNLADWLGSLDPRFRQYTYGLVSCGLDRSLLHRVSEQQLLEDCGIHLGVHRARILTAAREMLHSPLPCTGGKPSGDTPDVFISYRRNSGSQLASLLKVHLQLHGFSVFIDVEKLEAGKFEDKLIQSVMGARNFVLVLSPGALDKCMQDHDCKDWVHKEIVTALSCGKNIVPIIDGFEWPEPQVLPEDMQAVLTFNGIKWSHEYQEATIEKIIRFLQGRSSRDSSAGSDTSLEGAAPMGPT
The experiment in a line: SARM1 biological assay: HPLC measurement of NAD and NAM peak areas. The test is classed as biochemical.
Conditions: not given
The method, then:
Each reaction was run at a volume of 20 μL containing 50 μM compound (dissolved in DMSO; final concentration of DMSO is 1% v/v), 40 nM human SARM1(50-724), 0.3 mM NMN, 20 μM NAD, 1 mM TCEP, 25 mM HEPES pH 7.4, 10 mM KCl and 10 mM MgCl2. The reaction was incubated at room temperature for 60 minutes and quenched with 20 μL of 0.4% formic acid. The samples were run on Agilent HPLC 1260 Infinity II with Synergi 2.5 μM Fusion-RP 100 Å (100×3.0 mm) LC column from Phenomenex. Total run time for each sample was 4 minutes. The run was isocratic with 1.5% methanol in 40 mM ammonium acetate pH 6.0. Samples were run at a flow rate of 0.8 mL/min at 55° C. Peak areas of NAD and NAM were determined using OpenLAB CDS (Chem Station edition) software. For dose-response, the compound was diluted serially 1:3 in DMSO and added to the reaction starting at a final compound concentration of 100 μM in 1% DMSO.
Broadly, the IC50 is the concentration at which inhibition is half-maximal. In the case of `N#CC1CC(c2nc(Cc3ccncc3)c[nH]2)C1` [Example 35B, (trans)-(1S, 3S)-3-(4-Pyridin-4ylmethyl)-1H-imidazol-2-yl)cyclobutane-1-carbonitrile], the IC50 was less than 1000 nM.

Regarding `ClC1(Cl)CC(c2nc(Cc3ccncc3)c[nH]2)C1` [Example 19A, 4-((2-(3,3-Dichlorocyclobutyl)-1H-imidazol-4-yl)methyl)pyridine], the IC50 is less than 1000 nM.

Take `FC(F)(F)C1(c2nc(Cc3ccncc3)c[nH]2)CC1` [Example 16]: the IC50 lay in the range of 1000 to 10000 nM.

On to `FC1(F)CCC(c2nc(Cc3ccncc3)c[nH]2)CC1` [Example 13, 4-((2-(4,4-Difluorocyclohexyl)-1H-imidazol-4-yl)methyl)pyridine], for which the IC50 lay in the range of 1000 to 10000 nM.

Regarding `FC(F)(F)O[C@H]1C[C@H](c2nc(Cc3ccncc3)c[nH]2)C1` [Example 37B, (trans)-4-((2-(3-(Trifluoromethoxy)cyclobutyl)-1H-imidazole-4-yl)methyl)pyridine], the IC50 fell in the range of 1000 to 10000 nM.

In the case of `C[C@H](c1ccncc1)c1c[nH]c(C(=O)C(F)(F)F)n1` (single isomer, unassigned) [Example 23A, hydrochloride], the IC50 was less than 1000 nM.

Turning to `FC1(F)CC[C@@H](c2nc(Cc3ccncc3)c[nH]2)C1` (single isomer, unassigned) [Example 11B], the IC50 is 1000 to 10000 nM.

For the compound `FC(F)(F)O[C@H]1C[C@@H](c2nc(Cc3ccncc3)c[nH]2)C1` [Example 37A, (cis)-4-((2-(3-(Trifluoromethoxy)cyclobutyl)-1H-imidazole-4-yl)methyl)pyridine], the IC50 was less than 1000 nM.

For `Fc1cnccc1Cc1c[nH]c(C2CCC(F)(F)C2)n1` (stereo not drawn) [Example 18A, 4-((2-(3,3-Difluorocyclopentyl)-1H-imidazol-4-yl)methyl)-3-fluoropyridine], the IC50 is 1000 to 10000 nM.

As for `FC1(Cl)CC1c1nc(Cc2ccncc2)c[nH]1` (stereo not drawn) [Example 39, 4-((2-(2-Chloro-2-fluorocyclopropyl)-1H-imidazol-4-yl)methyl)pyridine], the IC50 was less than 1000 nM.

On to `C[C@@]1(c2nc(Cc3ccncc3)c[nH]2)CC1(F)F` (single isomer, unassigned) [Example 10B], for which the IC50 is less than 1000 nM.

Turning to `FC(F)(F)[C@H]1C[C@@H](c2nc(Cc3ccncc3)c[nH]2)C1` (single isomer, unassigned) [Example 31A, (cis)-4-((2-(3-(Trifluoromethyl)cyclobutyl)-1H-imidazol-4-yl)methyl)pyridine], the IC50 is 1000 to 10000 nM.

Take `Fc1cnccc1Cc1coc(C2CCC(F)(F)C2)n1` (stereo not drawn) [Example 18B, 2-(3,3-Difluorocyclopentyl)-4-((3-fluoropyridin-4-yl)methyl)oxazole]: the IC50 lay in the range of 10000 to 100000 nM.

Take `ClC1(Cl)C[C@H]1c1nc(Cc2ccncc2)c[nH]1` (single isomer, unassigned) [Example 33B]: the IC50 is less than 1000 nM.

As to `OC1(c2nc(Cc3ccncc3)c[nH]2)CCC(F)(F)CC1` [Example 12], the IC50 was in the range of 1000 to 10000 nM.

Regarding `F[C@H]1C[C@H](c2nc(Cc3ccncc3)c[nH]2)C1` [Example 30, (trans)-4-((2-(3-Fluorocyclobutyl)-1H-imidazol-4-yl)methyl)pyridine], the IC50 fell in the range of 1000 to 10000 nM.

As to `FC1(F)C[C@H]1Cc1nc(Cc2ccncc2)c[nH]1` (single isomer, unassigned) [Example 21B], the IC50 was less than 1000 nM.

With `Fc1cnccc1Cc1coc(C2CCC(F)(F)CC2)n1` [Example 17B, 2-(4,4-Difluorocyclohexyl)-4-((3-fluoropyridin-4-yl)methyl)oxazole], the IC50 was 10000 to 100000 nM.

For `F[C@@]1(Cl)C[C@@H]1c1nc(Cc2ccncc2)c[nH]1` (single isomer, unassigned) [Example 39A], the IC50 is less than 1000 nM.

Consider `FC(F)(F)Sc1ncc(Cc2ccncc2)[nH]1` [Example 28, 4-((2-((Trifluoromethyl)thio)-1H-imidazol-5-yl)methyl)pyridine], for which the IC50 was less than 1000 nM.

On to `OC1(C(F)(F)F)CC(c2nc(Cc3ccncc3)c[nH]2)C1` (stereo not drawn) [Example 8, 3-(4-(Pyridin-4-ylmethyl)-1H-imidazol-2-yl)-1-(trifluoromethyl)cyclobutan-1-ol], for which the IC50 lay within 1000 to 10000 nM.

Turning to `F[C@@]1(Cl)C[C@H]1c1nc(Cc2ccncc2)c[nH]1` (single isomer, unassigned) [Example 39C], the IC50 is less than 1000 nM.

`CC1(F)CC(c2nc(Cc3ccncc3)c[nH]2)C1` (stereo not drawn) [Example 9, 4-((2-(3-Fluoro-3-methylcyclobutyl)-1H-imidazol-4-yl)methyl)pyridine]: the IC50 was less than 1000 nM.

With `FC1(F)CC1(F)c1nc(Cc2ccncc2)c[nH]1` (stereo not drawn) [Example 40, 4-((2-(1,2,2-Trifluorocyclopropyl)-1H-imidazol-4-yl)methyl)pyridine], the IC50 was less than 1000 nM.

Regarding `F[C@H]1C[C@@H](c2nc(Cc3ccncc3)c[nH]2)C1` [Example 29, (cis)-4-((2-(3-Fluorocyclobutyl)-1H-imidazol-4-yl)methyl)pyridine], the IC50 was less than 1000 nM.

Turning to `Fc1cnccc1Cc1c[nH]c(C2CC(F)(F)C2)n1` [Example 4, 4-((2-(3,3-Difluorocyclobutyl)-1H-imidazol-4-yl)methyl)-3-fluoropyridine], the IC50 is less than 1000 nM.

Regarding `FC1(F)CCN(c2nc(Cc3ccncc3)c[nH]2)C1` [Example 3], the IC50 lay in the range of 1000 to 10000 nM.

`FC(F)(F)[C@H]1C[C@H](c2nc(Cc3ccncc3)c[nH]2)C1` (single isomer, unassigned) [Example 31B, (trans)-4-((2-(3-(Trifluoromethyl)cyclobutyl)-1H-imidazol-4-yl)methyl)pyridine]: the IC50 was 1000 to 10000 nM.

For `Fc1cnccc1Cc1coc(C2CC(F)(F)C2)n1` [Example 4A, 2-(3,3-Difluorocyclobutyl)-4-((3-fluoropyridin-4-yl)methyl)oxazole], the IC50 was in the range of 10000 to 100000 nM.

As to `FC(F)(F)[C@H]1CCO[C@H]1c1nc(Cc2ccncc2)c[nH]1` (relative stereo) [Example 27, (cis)-4-((2-(3-(trifluoromethyl)tetrahydrofuran-2-yl)-1H-imidazol-4-yl)methyl)pyridine], the half-inhibitory concentration (IC50) fell in the range of 10000 to 100000 nM.

In the case of `CC(c1ccncc1)c1c[nH]c(C(=O)C(F)(F)F)n1` (racemic) [Example 22, 2,2,2-Trifluoro-1-(4-(pyridine-4-yl)ethyl)-1H-imidazol-2-yl)ethan-1-one hydrochloride], the half-inhibitory concentration (IC50) was less than 1000 nM.

Regarding `ClC1CC(c2nc(Cc3ccncc3)c[nH]2)C1` (stereo not drawn) [Example 34, 4-((2-(3-Chlorocyclobutyl)-1H-imidazol-4-yl)methyl)pyridine], the IC50 is less than 1000 nM.

With `FC1(F)CC1c1nc(Cc2ccncc2)c[nH]1` (single isomer, unassigned) [Example 5A], the IC50 is less than 1000 nM.

As for `FC1(F)CN(c2nc(Cc3ccncc3)c[nH]2)C1` [Example 2, 4-((2-(3,3-Difluoroazetidin-1-yl)-1H-imidazol-4-yl)methyl)pyridine], the IC50 was in the range of 1000 to 10000 nM.

As for `Fc1cnccc1Cc1c[nH]c(C2CCC(F)(F)CC2)n1` [Example 17A, 4-((2-(4,4-Difluorocyclohexyl)-1H-imidazol-4-yl)methyl)-3-fluoropyridine], the IC50 is 1000 to 10000 nM.

Take `FC1(F)CC[C@H](c2nc(Cc3ccncc3)c[nH]2)C1` (single isomer, unassigned) [Example 11A]: the IC50 was less than 1000 nM.

For `FC1(F)CC1Cc1nc(Cc2ccncc2)co1` (stereo not drawn) [Example 20B, 2-((2,2-Difluorocyclopropyl)methyl)-4-(pyridine-4ylmethyl)oxazole], the IC50 fell in the range of 10000 to 100000 nM.

On to `FC1(F)CC(Cc2nc(Cc3ccncc3)c[nH]2)C1` [Example 24, 4-((2-((3,3-Difluorocyclobutyl)methyl)-1H-imidazol-4-yl)methyl)pyridine], for which the IC50 fell in the range of 1000 to 10000 nM.

Consider `FC1(F)CN(Cc2nc(Cc3ccncc3)c[nH]2)C1` [Example 7], for which the IC50 is 1000 to 10000 nM.

The test is the same for the next values; noted with them: 40 nM human SARM1(50-724), 0.3 mM NMN, 20 μM NAD, 60 min at room temperature; dose-response 1:3 serial dilution from 100 μM; read-out: Average IC50.
With `N#C[C@H]1C[C@@H](c2nc(Cc3ccncc3)c[nH]2)C1` [Example 35A], the IC50 was 1000 to 10000 nM.

Regarding `N#CC1(F)CC(c2nc(Cc3ccncc3)c[nH]2)C1` (stereo not drawn) [Example 38A], the IC50 lay within 1000 to 10000 nM.

The test is the same for the next values; noted with them: read-out: Average IC50; 40 nM human SARM1(50-724), 0.3 mM NMN, 20 μM NAD, 60 min at room temperature; dose-response 1:3 serial dilution from 100 μM.
On to `FC1(F)CC1c1nc(Cc2ccncc2)c[nH]1` (single isomer, unassigned) [Example 5B], for which the IC50 was less than 1000 nM.

These data come from patent publication US20260285834A1, “SUBSTITUTED PYRIDINE DERIVATIVES AS SARM1 INHIBITORS” (Nura Bio, Inc., priority 2022, published 2026).
